“And” between values parts separate entries of the source, which are not always exact repeats. Equal values may be shown once. Read-outs that look alike come from different tables or passages of the source.
Assays:
[1] = molecular target: FTO (Homo sapiens (Human), UniProt Q9C0B1); experiment: Fluorescence enzymatic inhibition assay (m6A7-Broccoli RNA / DFHBI-1T) against FTO; assay type: biochemical
Description: In order to determine their efficacy as FTO inhibitors, the compounds were screened by a fluorescence enzymatic inhibition assay developed previously by the Jaffrey lab.^44 Briefly, a nonfluorescent methylated RNA substrate termed “m6A7-Broccoli” is incubated with FTO in the presence of 2-oxoglutarate (300 μM), (NH4)2Fe(SO4)2·6H2O (300 μM), and L-ascorbate (2 mM) for 2 hours at room temperature in reaction buffer (50 mM NaHEPES, pH 6).
(§1) Inhibitors were added in concentrations ranging from 0.008-40 μM; all inhibitors were dissolved in DMSO and added to a final concentration of 0.2% DMSO. […] After incubation at room temperature for 2 hours, the plates were left at 4° C. overnight (16 hours) to allow DFHBI-1T to bind to A7-Broccoli RNA. […] Sigmoidal dose-response curves were fitted in GraphPad Prism 6. All assays were performed in triplicate, with additional repetitions added as necessary.

[2] = elogD / log D determination
[3] = molecular target: ALKBH5 (Homo sapiens (Human), UniProt Q6P6C2); experiment: Fluorescence enzymatic inhibition assay (m6A7-Broccoli RNA / DFHBI-1T) against ALKBH5; assay type: biochemical
Description: as §1

[4] = Table 700 compounds, read-out: Enzymatic IC50 FTO
[5] = Table 700 compounds, read-out: Enzymatic IC50 ALKBH5
[6] = ALK series, permeability data and IC50 tables, read-out: Enzymatic IC50 ALKBH5
[7] = m6A7-Broccoli fluorescence assay, 0.250 μM ALKBH5, read-out: Enzymatic IC50 ALKBH5
[8] = Table 800 compounds, read-out: FTO IC50
[9] = Table 800 compounds, read-out: ALKBH5 IC50

Chain of FTO (Q9C0B1 whole entry): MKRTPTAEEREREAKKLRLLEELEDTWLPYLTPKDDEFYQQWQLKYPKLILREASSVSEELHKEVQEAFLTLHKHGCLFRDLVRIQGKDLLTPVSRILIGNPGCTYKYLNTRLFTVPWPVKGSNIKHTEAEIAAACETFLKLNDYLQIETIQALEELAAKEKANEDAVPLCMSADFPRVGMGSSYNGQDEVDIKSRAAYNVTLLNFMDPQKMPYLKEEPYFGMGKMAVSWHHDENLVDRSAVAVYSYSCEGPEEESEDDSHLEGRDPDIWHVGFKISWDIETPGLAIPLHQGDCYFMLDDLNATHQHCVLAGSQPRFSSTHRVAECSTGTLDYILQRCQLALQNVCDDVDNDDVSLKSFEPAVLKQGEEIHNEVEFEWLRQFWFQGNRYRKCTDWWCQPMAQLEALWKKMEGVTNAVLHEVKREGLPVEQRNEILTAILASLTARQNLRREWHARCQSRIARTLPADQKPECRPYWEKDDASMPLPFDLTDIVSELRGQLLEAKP
Chain of ALKBH5 (Q6P6C2 whole entry): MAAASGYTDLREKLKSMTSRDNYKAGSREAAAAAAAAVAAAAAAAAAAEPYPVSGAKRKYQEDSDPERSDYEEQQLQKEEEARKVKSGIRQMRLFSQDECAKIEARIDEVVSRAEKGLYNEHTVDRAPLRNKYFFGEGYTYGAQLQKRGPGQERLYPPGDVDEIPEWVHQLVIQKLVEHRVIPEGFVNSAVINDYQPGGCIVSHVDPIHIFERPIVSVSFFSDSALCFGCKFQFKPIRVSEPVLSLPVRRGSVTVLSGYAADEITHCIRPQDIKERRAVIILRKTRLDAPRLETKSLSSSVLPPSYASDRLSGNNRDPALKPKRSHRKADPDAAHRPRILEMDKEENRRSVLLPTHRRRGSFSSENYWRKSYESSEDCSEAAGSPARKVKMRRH

| SMILES | IC50 [1, 4] | elogD ([2]; Table 700 compounds) | IC50 [3, 5] | IC50 [1, 8] [µM] | elogD ([2]; Table 800 compounds) | IC50 [3, 9] [µM] | further results |
| --- | --- | --- | --- | --- | --- | --- | --- |
| CCOC(=O)C1CC1C1NCCS1 (centres unmarked) [ALK-01] | 103 µM and > 40 µM | 0.58 | 17.5 µM |  |  |  |  |
| CC(C)(C)OC(=O)N1CCC(F)(C2NCCS2)C1 (centres unmarked) [ALK-02] | > 40 µM | 1.40 | 16.6 µM |  |  |  |  |
| O=C(O)N1CCC(F)(C2NCCS2)C1 (centres unmarked) [ALK-03] | > 40 µM | 0.62 | > 40 µM |  |  |  |  |
| CC1(C)SCC(C)(C(=O)O)N1C(N)=O (centres unmarked) [ALK-05] | > 40 µM | 0.16 | 19.8 ± 1.8 µM |  |  |  |  |
| O=C(O)[C@H]1NCCS1 [ALK-06] | > 40 µM | 0.89 | 8.8 µM and 7.95 µM |  |  |  |  |
| CC1(C)S[C@@H]2[C@H](N)C(=O)N2[C@H]1C(=O)O [ALK-07] | > 40 µM | 0.95 | 10 ± 2.8 µM |  |  |  |  |
| C[C@]1(Cn2ccnn2)C(C(=O)O)N2C(=O)C[C@H]2S1(=O)=O (some centres unmarked) [ALK-08] | > 40 µM | 0.36 | 9.9 ± 1.3 µM |  |  |  |  |
| CC1(C)[C@H](C(=O)O)N2C(=O)C[C@H]2S1(=O)=O [ALK-09] | > 40 µM | 0.41 | 3.8 µM and 5.7 µM |  |  |  |  |
| O=C1N[C@H](C(=O)O)CS1 [ALK-10] | > 40 µM | 0.54 | 1.7 ± 1.1 µM |  |  |  |  |
| COC(=O)C1COC(c2ccc(O)cc2)N1 (centres unmarked) [ALK-13] | > 40 µM | 2.12 | 6.7 ± 1.8 µM |  |  |  |  |
| COC(=O)C1COC(c2ccccc2O)N1 (centres unmarked) [ALK-16] | > 40 µM | 1.44 | 8.2 ± 2.3 µM |  |  |  | IC50 [3, 6]: 8.2 ± 2.3 µM |
| COC(=O)C1COC(c2ccc(OC)cc2O)N1 (centres unmarked) [ALK-17] |  |  |  |  |  |  | IC50 [3, 6]: 18.2 µM |
| COC(=O)C1COC(c2ccc(-c3ccccc3)o2)N1 (centres unmarked) [ALK-18] | 14.2 ± 3.1 µM | 0.73 | 5.4 ± 0.7 µM |  |  |  | IC50 [3, 6]: 5.4 ± 1.4 µM |
| COC(=O)C1COC(c2cc(C(C)(C)C)ccc2O)N1 (centres unmarked) [ALK-19] |  |  |  |  |  |  | IC50 [3, 6]: 24 ± 4.2 µM |
| COC(=O)C1COC(c2ccc(OC)c(Cl)c2)N1 (centres unmarked) [ALK-23] | > 40 µM | 3.01 | 2.8 ± 0.5 µM |  |  |  |  |
| COC(=O)C1COC(c2ccc(-c3ccccc3)s2)N1 (centres unmarked) [ALK-25] | > 40 µM | 1.17 | 0.9 ± 0.2 µM |  |  |  |  |

| SMILES | IC50 [1, 4] | elogD ([2]; Table 700 compounds) | IC50 [3, 5] | IC50 [1, 8] [µM] | elogD ([2]; Table 800 compounds) | IC50 [3, 9] [µM] | further results |
| --- | --- | --- | --- | --- | --- | --- | --- |
| CCN(CC)c1ccc(C2NC(C(=O)OC)CS2)c(O)c1 (centres unmarked) [ALK-30] | > 40 µM | 0.67 | 1.4 ± 0.4 µM |  |  |  |  |
| COc1ncc(-c2ccc3cc(O)ccc3c2)cn1 [FTO-2, 6-(2-methoxypyrimidin-5-yl)naphthalen-2-ol] |  |  |  |  |  |  | IC50 [3, 7]: 85.5 µM |
| COc1ncc(-c2ccc3nc(N)sc3c2)cn1 [FTO-4, 6-(2-methoxypyrimidin-5-yl)benzo[d]thiazol-2-amine] |  |  |  |  |  |  | IC50 ([1]; m6A7-Broccoli fluorescence assay, 0.250 μM FTO, inhibitor up to 40 μM, triplicate, read-out: Enzymatic IC50 FTO): 3.39 ± 2.5 µM; IC50 [3, 7]: 39.4 ± 3.1 µM |
| O=S(=O)(NCC1CCCOC1)c1ccc(OC(F)(F)F)cc1 (centres unmarked) [TR-ALKBH5-04] |  |  |  | 19.7 | 0.37 | 0.24 |  |
| CC(=O)c1ccc(S(=O)(=O)NCC2CCCOC2)cc1 (centres unmarked) [TR-ALKBH5-05] |  |  |  | > 40 | 1.12 | 1.9 |  |
| O=S(=O)(NCC1CCCOC1)c1ccccc1 (centres unmarked) [TR-ALKBH5-08] |  |  |  | 6.4 | 0.89 | 0.5 |  |
| O=S(=O)(Nc1ccc(Cl)c(C(F)(F)F)c1)c1ccc(OC(F)(F)F)cc1 [TR-ALKBH5-25] |  |  |  | > 40 | 1.50 | 1.6 |  |
| O=S(=O)(Nc1cccs1)c1ccc(OC(F)(F)F)cc1 [TR-ALKBH5-27] |  |  |  | > 40 | 0.36 | 2 |  |
| O=S(=O)(Nc1cc(Cl)ccc1O)c1ccc(OC(F)(F)F)cc1 [TR-ALKBH5-29] |  |  |  | > 40 | 0.88 | 0.11 |  |
| O=S(=O)(Nc1cc(F)ccc1O)c1ccc(OC(F)(F)F)cc1 [TR-ALKBH5-30] |  |  |  | > 40 | 0.81 | 1 |  |
| O=S(=O)(Nc1nccnc1O)c1ccc(OC(F)(F)F)cc1 [TR-ALKBH5-31] |  |  |  | > 40 | 2.33 | 13.7 |  |
| O=S(=O)(NCc1ccccn1)c1ccc(OC(F)(F)F)cc1 [TR-ALKBH5-32] |  |  |  | > 40 | 2.25 | 2.2 |  |
| O=S(=O)(Nc1ccc(Cl)c(Cl)c1)c1ccc(OC(F)(F)F)cc1 [TR-ALKBH5-33] |  |  |  |  | 1.24 |  |  |
| Cc1ccc(NS(=O)(=O)c2ccc(OC(F)(F)F)cc2)cc1C [TR-ALKBH5-34] |  |  |  | > 40 | 0.60 | 23.3 |  |
| O=S(=O)(Nc1ccccc1N1CCCCC1)c1ccc(OC(F)(F)F)cc1 [TR-ALKBH5-36] |  |  |  | 23.2 | 1.13 | 0.4 |  |

— patent US20230322715A1, “BROAD SPECTRUM ANTI-CANCER COMPOUNDS” (The Regents of the University of California, priority 2019, published 2023)
